In ChEMBL document CHEMBL3588751, “A new antibacterial octaketide and cytotoxic phenylethanoid glycosides from Pogostemon cablin (Blanco) Benth” (Bioorg Med Chem Lett, 2015) one finds IC50, MIC and MFC data, which are given here for six compounds.

The subject of one assay is A549. The assay can be described thus: Cytotoxicity against human A549 cells assessed as inhibition of cell growth incubated for 48 hrs by SRB assay. Type of assay: functional, cell-based. To be noted: A549, 48 h. (Sulforhodamine B stains cellular protein and so reports cell mass.)
Another assay relates to Staphylococcus aureus. The assay can be described thus: Antimicrobial activity against Staphylococcus aureus BAA-2313 incubated for 48 hrs by broth dilution method. The following applies: BAA-2313, 48 h. The assay is classed as functional, organism-based. On the technique in general: In broth dilution the organism is exposed to a series of concentrations in liquid medium.

For the next assay, the system named is HCT-15. Briefly: Cytotoxicity against human HCT15 cells assessed as inhibition of cell growth incubated for 48 hrs by SRB assay. The assay is classed as functional, cell-based. The following applies: HCT-15, 48 h.
Another assay has as its system SK-OV-3. The assay can be described thus: Cytotoxicity against human SKOV3 cells assessed as inhibition of cell growth incubated for 48 hrs by SRB assay. The assay is classed as functional, cell-based. The following applies: SK-OV-3, 48 h.
Another assay relates to Saccharomyces cerevisiae. Briefly: Antimicrobial activity against Saccharomyces cerevisiae ATCC 9763 incubated for 48 hrs by broth dilution method. The assay is classed as functional, organism-based. To be noted: ATCC 9763, 48 h.
The next assay relates to Bacillus subtilis. The assay can be described thus: Antimicrobial activity against Bacillus subtilis ATCC 6633 incubated for 48 hrs by broth dilution method. The assay is classed as functional, organism-based. To be noted: ATCC 6633, 48 h.
The next assay deals with SK-MEL-2. The assay can be described thus: Cytotoxicity against human SK-MEL-2 cells assessed as inhibition of cell growth incubated for 48 hrs by SRB assay. The assay is classed as functional, cell-based. The following applies: SK-MEL-2, 48 h.
For another assay, the system named is Candida albicans. Briefly: Antimicrobial activity against Candida albicans ATCC 10231 incubated for 48 hrs by broth dilution method. To be noted: ATCC 10231, 48 h. Type of assay: functional, organism-based.

Values after ≈ are worked out from the molar mass of the structure shown. Some results are limits rather than exact numbers.

A word on the IC50: it is the concentration that inhibits the measured activity by half. As a reminder, the MIC is the smallest concentration in the dilution series that meets the test's criterion for growth inhibition. With `C[C@@H]1O[C@@H](O[C@@H]2[C@@H](O)[C@H](OCCc3ccc(O)c(O)c3)O[C@H](CO)[C@H]2OC(=O)/C=C/c2ccc(O)c(O)c2)[C@H](O)[C@H](O)[C@H]1O` [ACETOSIDE], the IC50 in the assay on A549 is 5.81 µM; with Staphylococcus aureus it was 156 µg/mL (≈ 249 µM); in the assay on HCT-15, 2.73 µM; with SK-OV-3 it was 7.61 µM; in the assay on Saccharomyces cerevisiae, more than 200 µg/mL; in the assay with Bacillus subtilis, 98.5 µg/mL (≈ 158 µM). Moreover, the half-maximal inhibitory concentration (IC50) in the assay on SK-MEL-2 was 8.52 µM; in the assay on Candida albicans, more than 200 µg/mL. The MIC stood at 200 µg/mL (≈ 320 µM) against Staphylococcus aureus and 150 µg/mL (≈ 240 µM) against Bacillus subtilis.

With `C[C@@H]1O[C@@H](O[C@@H]2[C@@H](O)[C@H](OCCc3ccc(O)c(O)c3)O[C@H](CO)[C@@H]2OC(=O)/C=C/c2ccc(O)c(O)c2)[C@H](O)[C@H](O)[C@H]1O`, the IC50 with A549 is 6.78 µM; in the assay on Staphylococcus aureus, 165 µg/mL (≈ 264 µM); in the assay with HCT-15 it was 7.03 µM; with SK-OV-3, 9.52 µM; with Saccharomyces cerevisiae, more than 200 µg/mL; with Bacillus subtilis, 106 µg/mL (≈ 169 µM). Moreover, the values for the IC50 in the assay with SK-MEL-2 and in the assay on Candida albicans were 4.5 µM and more than 200 µg/mL, respectively. The minimum inhibitory concentration (MIC) against Staphylococcus aureus is 200 µg/mL (≈ 320 µM); against Bacillus subtilis it was 150 µg/mL (≈ 240 µM).

As to `CC[C@@H](C)C(=O)c1c(O)cc(O)cc1CC(=O)O`, the IC50 in the assay with A549 is more than 30 µM; with Staphylococcus aureus it was 140 µg/mL (≈ 556 µM); in the assay on HCT-15 it was more than 30 µM; in the assay with SK-OV-3, more than 30 µM; with Saccharomyces cerevisiae, more than 200 µg/mL; with Bacillus subtilis, 84.1 µg/mL (≈ 333 µM). For the same compound, the concentration for half-maximal inhibition (IC50) with SK-MEL-2 was more than 30 µM; with Candida albicans it was more than 200 µg/mL. In addition, the MIC against Staphylococcus aureus is 200 µg/mL (≈ 793 µM); against Bacillus subtilis it was 150 µg/mL (≈ 595 µM).

For the compound `C[C@@H]1[C@H](O)[C@@H](C)/C=C/C=C/C=C/C=C/C=C/C=C/C=C/[C@H](O[C@@H]2O[C@H](C)[C@@H](O)[C@H](N)[C@@H]2O)C[C@@H]2O[C@](O)(C[C@@H](O)C[C@@H](O)[C@H](O)CC[C@@H](O)C[C@@H](O)CC(=O)O[C@H]1C)C[C@H](O)[C@H]2C(=O)O` [AMPHOTERICIN B], the IC50 in the assay on Saccharomyces cerevisiae was found to be 0.5 µg/mL (≈ 0.541 µM); in the assay with Candida albicans it was 2.1 µg/mL (≈ 2.27 µM). Moreover, the MFC in the assay on Saccharomyces cerevisiae and in the assay on Candida albicans was 5 µg/mL (≈ 5.41 µM) in each case.

On to `CN[C@@H]1[C@H](O[C@H]2[C@H](O[C@H]3[C@H](O)[C@@H](O)[C@H](N=C(N)N)[C@@H](O)[C@@H]3N=C(N)N)O[C@@H](C)[C@]2(O)C=O)O[C@@H](CO)[C@H](O)[C@H]1O.CN[C@@H]1[C@H](O[C@H]2[C@H](O[C@H]3[C@H](O)[C@@H](O)[C@H](N=C(N)N)[C@@H](O)[C@@H]3N=C(N)N)O[C@@H](C)[C@]2(O)C=O)O[C@@H](CO)[C@H](O)[C@H]1O.O=S(=O)(O)O.O=S(=O)(O)O.O=S(=O)(O)O` [STREPTOMYCIN SULFATE], for which, in the assay with Staphylococcus aureus, 8.5 µg/mL corresponded to half-maximal inhibition (IC50) and the MIC was found to be 10 µg/mL. In the assay with Bacillus subtilis, this compound had a half-inhibitory concentration (IC50) of 4.5 µg/mL and a minimal inhibitory concentration (MIC) of 5 µg/mL.

Regarding `COc1cccc2c1C(=O)c1c(O)c3c(c(O)c1C2=O)C[C@@](O)(C(=O)CO)C[C@@H]3O[C@H]1C[C@H](N)[C@H](O)[C@H](C)O1` [DOXORUBICIN], the IC50 in the assay on HCT-15 is 0.109 µM.
